Measured values published in PubChem BioAssay (NCI).
Several values for one entry are separate records, joined by “and”; a condition that tells them apart may be missing. Equal entries are not always repeated.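 In this assay, cells in 96-well plates receive the compound at five concentrations for 48 hours. Endpoints are linearly interpolated between the surrounding concentrations. GI50 is the concentration that inhibits growth by half. TGI is the concentration that stops growth completely.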

Legend:
Assay in all cases: inhibition of tumour cell growth, NCI panel, 48 h
DMS 114 small cell lung = system: DMS 114 small cell lung
KM20L2 colon = system: KM20L2 colon
LXFL 529 NSCLC = system: LXFL 529 NSCLC
M19-MEL melanoma = system: M19-MEL melanoma
XF 498 CNS = system: XF 498 CNS
BT-549 breast = system: BT-549 breast
DU-145 prostate = system: DU-145 prostate
HS 578T breast = system: HS 578T breast
MDA-MB-231 breast = system: MDA-MB-231 breast
MDA-MB-435 = system: MDA-MB-435
NCI/ADR-RES ovarian = system: NCI/ADR-RES ovarian

Row | Compound | TGI (DMS 114 small cell lung) | TGI (KM20L2 colon) | TGI (LXFL 529 NSCLC) | TGI (M19-MEL melanoma) | GI50 (LXFL 529 NSCLC) | GI50 (M19-MEL melanoma) | TGI (XF 498 CNS) | GI50 (BT-549 breast) | TGI (BT-549 breast) | GI50 (DU-145 prostate) | TGI (DU-145 prostate) | GI50 (HS 578T breast) | TGI (HS 578T breast) | GI50 (MDA-MB-231 breast) | TGI (MDA-MB-231 breast) | GI50 (MDA-MB-435) | TGI (MDA-MB-435) | GI50 (NCI/ADR-RES ovarian) | TGI (NCI/ADR-RES ovarian) | GI50 (KM20L2 colon)
1 | COc1ccc(C2NC(c3ccc(OC)cc3)C(C)C(=O)C2C)cc1 (configuration not stated) | > 100 µM | > 100 µM | > 100 µM | > 100 µM |  |  |  |  |  |  |  |  |  |  |  |  |  |  |  | 
2 | CC1(O)CC2C(CC1SCc1ccccc1)C2(C)C (configuration not stated) | 33.1 µM | 59.4 µM and 35.9 µM | > 100 µM and 28.1 µM | 57.8 µM and > 100 µM | 38.6 µM and 14.8 µM | 26.2 µM and > 100 µM | 32.9 µM and 37.4 µM |  |  |  |  |  |  |  |  |  |  |  |  | 
3 | c1ccc2c(c1)n1nnnc1c1nnnn21 | > 100 µM | > 100 µM | > 100 µM | > 100 µM |  |  | > 100 µM |  |  |  |  |  |  |  |  |  |  |  |  | 
4 | CCOC(=O)c1cnc2c(ccc3ncccc32)c1OCC | > 100 µM | > 100 µM | > 100 µM | > 100 µM |  |  |  |  |  |  |  |  |  |  |  |  |  |  |  | 
5 | O=C(N[C@H]1CC2(C=C(I)C(=O)C(I)=C2)OC1=O)OCc1ccccc1 | 39.3 µM | 34.7 µM | 30.2 µM |  |  |  | 26.8 µM |  |  |  |  |  |  |  |  |  |  |  |  | 
6 | CCCCCCC1CCCCN1C(c1ccccc1)C(O)c1ccccc1 (configuration not stated) |  |  |  |  |  |  |  | 10.4 µM | 22.4 µM | 8.34 µM | 20.7 µM | 6.68 µM | 21.1 µM | 6.79 µM | 20.3 µM | 4.71 µM | 19.2 µM | 10.1 µM | 22.9 µM | 
7 | O=[N+]([O-])/C(=C/C=C/c1ccccc1)c1ccccc1 |  |  |  |  |  |  |  | 1.91 µM | 4.1 µM | 1.76 µM | 3.22 µM | 2.86 µM | 8.41 µM | 1.92 µM | 4.28 µM | 2.12 µM | 4.92 µM | 3.56 µM | 11.9 µM | 
8 | CCOc1ccc(N=Nc2c(-c3ccccc3)nn(C(=O)CC(=O)Nc3ccccc3Cl)c2-c2ccccc2)cc1 | > 100 µM | > 100 µM | > 100 µM | > 100 µM |  |  | > 100 µM |  |  |  |  |  |  |  |  |  |  |  |  | 
9 | O=C1Cc2c([nH]c3ccccc23)-c2cc(Br)ccc2N1 | > 100 µM | > 100 µM | > 100 µM | > 100 µM |  |  |  |  |  |  |  |  |  |  |  |  |  |  |  | 
10 | CN(Cc1cnc2nc(N)nc(N)c2n1)c1c(Cl)cc(C(=O)NC(CCC(=O)O)C(=O)O)cc1Br (configuration not stated) |  |  |  |  |  |  |  | < 0.0122 µM | > 100 µM | < 0.01 µM | > 100 µM | 17.8 µM | > 100 µM |  | > 100 µM | < 0.01 µM | > 100 µM | < 0.01 µM | > 100 µM | 
11 | CCCC/C=C1/CCC(CN(C)C)C1=O (configuration not stated) | 3.92 µM | 5.59 µM | 1.36 µM | 3.05 µM |  |  |  |  |  |  | 28.9 µM |  | 15 µM |  | 9.03 µM |  | 23.1 µM |  | 15 µM | 
12 | O=C(/C=C/c1ccccn1)c1ccccc1 |  |  |  |  |  |  |  | 14.4 µM | 27.6 µM | 13.1 µM | 25.7 µM | 12.5 µM | 39.4 µM | 9.92 µM | 23.8 µM | 7.85 µM | 24.9 µM | 3.01 µM | 12.1 µM | 
13 | CNC(=O)N(CCCCC(NC(C)=O)C(=O)NCc1ccccc1)Cc1ccccc1 (configuration not stated) | > 100 µM | > 100 µM | > 100 µM | > 100 µM |  |  | > 100 µM |  |  |  |  |  |  |  |  |  |  |  |  | 
14 | COc1ccc(S(=O)(=O)NNS(C)(=O)=O)cc1OC |  | > 100 µM | > 100 µM | > 100 µM |  |  | > 100 µM |  |  |  |  |  |  |  |  |  |  |  |  | 
15 | O=S1(=O)CS(=O)(=O)OCCCCCO1 | > 100 µM | > 100 µM | > 100 µM | > 100 µM |  |  |  |  |  |  |  |  |  |  |  |  |  |  |  | 
16 | COc1cc(C(=O)/C=C/c2c(C)n([O-])c3ccc(Cl)cc3[n+]2=O)cc(OC)c1OC |  |  |  |  |  |  |  | 11 µM | > 100 µM | 4.2 µM | > 100 µM | 1.75 µM | 8.97 µM | 12.9 µM | > 100 µM | 3.4 µM | > 100 µM | 4.89 µM | 35.8 µM | 
17 | Cc1ncc([N+](=O)[O-])n1CCOc1ccc(C(=O)/C=C/c2ccc(C(F)(F)F)cc2)cc1 |  |  |  |  |  |  |  | 4.64 µM | 17 µM | 3.56 µM | 11.9 µM | 5.2 µM | 33.3 µM | 3.53 µM | 15.5 µM | 3.56 µM | 13.9 µM | 2.76 µM | 9.29 µM | 
18 | O=C([CH-]C(=O)c1ccccc1)c1ccccc1.[CH2-]C.[CH2-]C.[Tl+3] |  | > 100 µM |  |  |  |  |  | 26.9 µM | > 100 µM | 15.3 µM | 59.3 µM | 31.7 µM | > 100 µM | > 100 µM | > 100 µM | 24.8 µM | > 100 µM | 26.1 µM | > 100 µM | 27.4 µM
19 | Cc1cc(N(CCC#N)CCC#N)ccc1/C=C1N=C(/C=C\c2ccccc2)N(c2ccc(C(=O)O)cc2)C\1=O | > 100 µM | > 100 µM | > 100 µM | > 100 µM |  |  |  |  |  |  |  |  |  |  |  |  |  |  |  | 
20 | Cn1cc(C2=C(c3cccc([N+](=O)[O-])c3)C(=O)NC2=O)c2ccccc21 |  |  |  |  |  |  |  | 6.38 µM | > 23.2 µM | 12.7 µM | > 25 µM | 2.14 µM | > 25 µM | 6.42 µM | > 25 µM | 7.46 µM | > 25 µM | 5.66 µM | > 23.1 µM | 
21 | CC(C)OC(=O)c1cc(NC(=S)OC(C)C)ccc1Cl |  |  |  |  |  |  |  |  | 33.5 µM |  | > 62.1 µM |  | > 79.8 µM |  | 30.4 µM |  | 31.4 µM |  | > 63.4 µM | 
